Laboratory results taken from ChEMBL document CHEMBL5465560, “Selectivity Literature for EUbOPEN Chemogenomic Library” (2024).

Tests used:
[1] = molecular target: Phosphatidylinositol 4-kinase beta (Homo sapiens, UniProt Q9UBF8); assay: Selectivity interaction (KinomeScan (DiscoverX)) EUB0000045b PI4KB
[2] = molecular target: Serine/threonine-protein kinase PLK2 (Homo sapiens, UniProt Q9NYY3); assay: Selectivity interaction (KinomeScan (DiscoverX)) EUB0000045b PLK2
[3] = molecular target: Non-receptor tyrosine-protein kinase TYK2 (Homo sapiens, UniProt P29597); assay: Selectivity interaction (KinomeScan (DiscoverX)) EUB0000045b TYK2; conditions: at 10 µM
Aurora kinase B = Aurora kinase B (Homo sapiens, UniProt Q96GD4); assay: Selectivity interaction (KinomeScan (DiscoverX)) EUB0001550a AURKB; conditions: at 1 µM
[4] = molecular target: T1, Tyrosine-protein kinase JAK3 (Homo sapiens) (UniProt P52333); assay: Selectivity interaction (Upstate Kinase Profiler service (Millipore)) EUB0000056c JAK3; conditions: at 1 µM
T1 sequence (whole entry): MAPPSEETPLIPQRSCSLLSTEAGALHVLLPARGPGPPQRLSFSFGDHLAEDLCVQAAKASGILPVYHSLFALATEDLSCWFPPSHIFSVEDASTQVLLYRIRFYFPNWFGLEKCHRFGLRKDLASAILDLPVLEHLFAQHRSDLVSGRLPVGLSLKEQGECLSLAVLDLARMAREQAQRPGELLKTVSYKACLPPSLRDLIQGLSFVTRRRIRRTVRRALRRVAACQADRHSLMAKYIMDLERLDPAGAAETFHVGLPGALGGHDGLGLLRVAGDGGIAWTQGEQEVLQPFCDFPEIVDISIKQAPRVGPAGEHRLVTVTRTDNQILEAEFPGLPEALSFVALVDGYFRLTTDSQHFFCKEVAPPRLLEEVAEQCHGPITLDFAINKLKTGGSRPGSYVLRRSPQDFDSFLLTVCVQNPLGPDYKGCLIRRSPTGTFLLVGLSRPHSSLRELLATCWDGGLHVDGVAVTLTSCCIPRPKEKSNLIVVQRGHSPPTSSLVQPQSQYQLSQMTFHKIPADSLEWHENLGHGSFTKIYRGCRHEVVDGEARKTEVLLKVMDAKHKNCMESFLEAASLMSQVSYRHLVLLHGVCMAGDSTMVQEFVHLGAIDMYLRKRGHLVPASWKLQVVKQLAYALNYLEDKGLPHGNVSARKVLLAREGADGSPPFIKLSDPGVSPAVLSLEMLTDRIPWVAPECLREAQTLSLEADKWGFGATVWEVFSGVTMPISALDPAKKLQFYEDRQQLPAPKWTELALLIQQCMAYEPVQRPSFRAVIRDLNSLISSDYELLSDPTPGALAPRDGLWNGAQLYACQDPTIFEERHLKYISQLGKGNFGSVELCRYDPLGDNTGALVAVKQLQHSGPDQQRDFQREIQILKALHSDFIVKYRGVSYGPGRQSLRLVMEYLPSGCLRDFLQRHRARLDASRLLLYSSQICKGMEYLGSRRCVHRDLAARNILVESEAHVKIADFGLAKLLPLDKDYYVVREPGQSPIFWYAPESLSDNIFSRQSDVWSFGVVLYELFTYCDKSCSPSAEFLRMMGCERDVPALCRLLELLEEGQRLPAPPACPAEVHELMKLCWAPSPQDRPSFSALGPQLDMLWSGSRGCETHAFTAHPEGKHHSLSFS

[5] = molecular target: Mitogen-activated protein kinase kinase kinase 14 (Homo sapiens) (UniProt Q99558); assay: Selectivity interaction (ProQinase) EUB0000171b MAP3K14
[6] = molecular target: T2, Cyclin-dependent kinase 11A (Homo sapiens) (UniProt Q9UQ88); assay: Selectivity interaction (ActivX KiNativ screen (kinase selectivity in THP-1 cell lysates)) EUB0000639a CDK11A; type: subcellular; conditions: lysate, at 0.2 µM
T2 sequence (whole entry): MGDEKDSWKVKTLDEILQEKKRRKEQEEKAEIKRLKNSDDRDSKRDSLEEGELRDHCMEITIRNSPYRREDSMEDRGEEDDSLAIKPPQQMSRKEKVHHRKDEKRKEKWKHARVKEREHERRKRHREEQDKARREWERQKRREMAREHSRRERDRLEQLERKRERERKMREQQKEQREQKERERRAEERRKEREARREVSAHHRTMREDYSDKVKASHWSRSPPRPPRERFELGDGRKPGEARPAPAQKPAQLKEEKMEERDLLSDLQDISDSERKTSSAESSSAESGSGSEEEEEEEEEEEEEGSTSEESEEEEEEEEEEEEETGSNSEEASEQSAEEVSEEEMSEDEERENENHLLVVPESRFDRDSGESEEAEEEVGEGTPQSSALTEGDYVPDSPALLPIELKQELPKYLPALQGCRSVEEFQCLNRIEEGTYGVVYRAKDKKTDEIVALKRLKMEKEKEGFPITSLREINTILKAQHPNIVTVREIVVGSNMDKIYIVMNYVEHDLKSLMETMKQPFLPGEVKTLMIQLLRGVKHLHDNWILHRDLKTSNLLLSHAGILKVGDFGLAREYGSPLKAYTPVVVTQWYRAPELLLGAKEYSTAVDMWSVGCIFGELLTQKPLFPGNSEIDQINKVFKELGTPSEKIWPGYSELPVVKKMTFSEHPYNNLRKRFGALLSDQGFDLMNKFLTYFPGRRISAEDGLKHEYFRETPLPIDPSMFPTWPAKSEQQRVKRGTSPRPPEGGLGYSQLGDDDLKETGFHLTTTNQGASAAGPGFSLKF

[7] = molecular target: 5'-AMP-activated protein kinase catalytic subunit alpha-2 (Homo sapiens) (UniProt P54646); assay: Selectivity interaction (ActivX KiNativ screen (kinase selectivity in THP-1 cell lysates)) EUB0000639a PRKAA2; type: subcellular; conditions: lysate, at 0.04 µM
[8] = molecular target: Insulin-like growth factor 1 receptor (Homo sapiens, UniProt P08069); assay: Selectivity interaction (KinomeScan (DiscoverX)) EUB0000655a IGF1R; conditions: at 10 µM
[9] = molecular target: Leukocyte tyrosine kinase receptor (Homo sapiens, UniProt P29376); assay: Selectivity interaction (KinomeScan (DiscoverX)) EUB0000655a LTK; conditions: at 10 µM
Leukocyte tyrosine kinase receptor, sequence (P29376 whole entry): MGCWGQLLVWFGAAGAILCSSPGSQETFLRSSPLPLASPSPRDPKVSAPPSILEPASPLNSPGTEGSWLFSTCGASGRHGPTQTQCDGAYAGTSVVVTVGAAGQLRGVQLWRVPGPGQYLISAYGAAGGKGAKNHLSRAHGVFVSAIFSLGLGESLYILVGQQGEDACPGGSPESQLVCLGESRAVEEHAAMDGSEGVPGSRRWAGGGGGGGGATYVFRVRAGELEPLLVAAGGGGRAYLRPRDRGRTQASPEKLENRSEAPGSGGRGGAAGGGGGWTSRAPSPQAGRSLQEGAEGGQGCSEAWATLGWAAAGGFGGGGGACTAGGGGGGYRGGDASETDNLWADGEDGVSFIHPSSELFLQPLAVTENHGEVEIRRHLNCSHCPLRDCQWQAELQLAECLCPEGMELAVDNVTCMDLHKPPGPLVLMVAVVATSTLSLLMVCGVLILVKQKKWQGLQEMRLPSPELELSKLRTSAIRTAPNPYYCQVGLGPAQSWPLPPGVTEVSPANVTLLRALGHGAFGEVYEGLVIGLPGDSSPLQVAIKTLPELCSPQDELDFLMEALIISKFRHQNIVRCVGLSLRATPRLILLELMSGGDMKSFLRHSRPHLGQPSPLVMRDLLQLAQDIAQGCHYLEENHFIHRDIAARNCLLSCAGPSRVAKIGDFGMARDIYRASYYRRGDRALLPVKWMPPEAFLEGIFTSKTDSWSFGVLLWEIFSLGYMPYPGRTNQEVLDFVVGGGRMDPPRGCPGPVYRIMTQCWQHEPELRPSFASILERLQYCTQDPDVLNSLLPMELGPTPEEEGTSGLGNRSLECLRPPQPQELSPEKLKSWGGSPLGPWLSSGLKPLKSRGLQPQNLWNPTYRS

Serine/threonine-protein kinase PLK2, sequence (Q9NYY3 whole entry, looked up): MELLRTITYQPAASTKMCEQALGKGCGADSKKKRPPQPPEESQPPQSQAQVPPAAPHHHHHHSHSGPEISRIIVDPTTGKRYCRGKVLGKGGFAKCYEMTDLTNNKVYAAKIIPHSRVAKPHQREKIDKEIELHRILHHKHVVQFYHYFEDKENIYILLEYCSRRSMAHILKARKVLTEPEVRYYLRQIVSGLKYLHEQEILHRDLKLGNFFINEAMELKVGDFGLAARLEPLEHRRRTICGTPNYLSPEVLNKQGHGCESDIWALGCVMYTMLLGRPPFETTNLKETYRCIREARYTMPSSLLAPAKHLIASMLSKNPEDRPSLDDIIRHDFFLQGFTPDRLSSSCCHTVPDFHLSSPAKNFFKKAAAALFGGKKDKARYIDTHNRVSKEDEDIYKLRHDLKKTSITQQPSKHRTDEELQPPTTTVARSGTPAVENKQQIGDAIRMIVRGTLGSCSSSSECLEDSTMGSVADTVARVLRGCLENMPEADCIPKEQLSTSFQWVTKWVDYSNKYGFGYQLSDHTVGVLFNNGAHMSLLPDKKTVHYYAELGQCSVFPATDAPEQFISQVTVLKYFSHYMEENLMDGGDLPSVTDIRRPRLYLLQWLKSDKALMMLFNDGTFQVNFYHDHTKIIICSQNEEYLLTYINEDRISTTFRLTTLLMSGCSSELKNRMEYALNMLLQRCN
Mitogen-activated protein kinase kinase kinase 14 (Homo sapiens), sequence (Q99558 whole entry, looked up): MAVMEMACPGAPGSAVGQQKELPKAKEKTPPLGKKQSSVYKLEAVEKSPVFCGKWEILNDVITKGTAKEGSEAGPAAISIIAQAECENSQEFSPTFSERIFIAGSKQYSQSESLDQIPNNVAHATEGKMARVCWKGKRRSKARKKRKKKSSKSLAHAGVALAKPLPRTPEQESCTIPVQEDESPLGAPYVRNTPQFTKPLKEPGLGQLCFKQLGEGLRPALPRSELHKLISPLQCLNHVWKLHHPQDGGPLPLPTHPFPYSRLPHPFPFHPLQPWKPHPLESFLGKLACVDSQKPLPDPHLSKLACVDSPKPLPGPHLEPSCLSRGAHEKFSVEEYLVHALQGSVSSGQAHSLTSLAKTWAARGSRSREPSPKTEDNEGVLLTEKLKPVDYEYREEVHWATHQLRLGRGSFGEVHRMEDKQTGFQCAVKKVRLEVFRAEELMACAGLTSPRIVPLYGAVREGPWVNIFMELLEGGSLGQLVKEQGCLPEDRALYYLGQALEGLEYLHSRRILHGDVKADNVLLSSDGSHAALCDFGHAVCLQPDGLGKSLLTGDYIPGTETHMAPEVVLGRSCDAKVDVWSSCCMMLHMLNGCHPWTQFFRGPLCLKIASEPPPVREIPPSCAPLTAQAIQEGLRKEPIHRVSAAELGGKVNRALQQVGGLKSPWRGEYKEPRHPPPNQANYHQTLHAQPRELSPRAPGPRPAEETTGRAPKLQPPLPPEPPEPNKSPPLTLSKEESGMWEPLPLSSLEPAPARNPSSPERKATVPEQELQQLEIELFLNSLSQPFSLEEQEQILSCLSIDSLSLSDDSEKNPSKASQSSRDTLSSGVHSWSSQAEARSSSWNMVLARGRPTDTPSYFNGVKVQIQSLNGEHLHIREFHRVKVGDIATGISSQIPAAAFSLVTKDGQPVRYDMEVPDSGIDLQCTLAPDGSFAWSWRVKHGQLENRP
Phosphatidylinositol 4-kinase beta, sequence (Q9UBF8 2-816 limits assumed): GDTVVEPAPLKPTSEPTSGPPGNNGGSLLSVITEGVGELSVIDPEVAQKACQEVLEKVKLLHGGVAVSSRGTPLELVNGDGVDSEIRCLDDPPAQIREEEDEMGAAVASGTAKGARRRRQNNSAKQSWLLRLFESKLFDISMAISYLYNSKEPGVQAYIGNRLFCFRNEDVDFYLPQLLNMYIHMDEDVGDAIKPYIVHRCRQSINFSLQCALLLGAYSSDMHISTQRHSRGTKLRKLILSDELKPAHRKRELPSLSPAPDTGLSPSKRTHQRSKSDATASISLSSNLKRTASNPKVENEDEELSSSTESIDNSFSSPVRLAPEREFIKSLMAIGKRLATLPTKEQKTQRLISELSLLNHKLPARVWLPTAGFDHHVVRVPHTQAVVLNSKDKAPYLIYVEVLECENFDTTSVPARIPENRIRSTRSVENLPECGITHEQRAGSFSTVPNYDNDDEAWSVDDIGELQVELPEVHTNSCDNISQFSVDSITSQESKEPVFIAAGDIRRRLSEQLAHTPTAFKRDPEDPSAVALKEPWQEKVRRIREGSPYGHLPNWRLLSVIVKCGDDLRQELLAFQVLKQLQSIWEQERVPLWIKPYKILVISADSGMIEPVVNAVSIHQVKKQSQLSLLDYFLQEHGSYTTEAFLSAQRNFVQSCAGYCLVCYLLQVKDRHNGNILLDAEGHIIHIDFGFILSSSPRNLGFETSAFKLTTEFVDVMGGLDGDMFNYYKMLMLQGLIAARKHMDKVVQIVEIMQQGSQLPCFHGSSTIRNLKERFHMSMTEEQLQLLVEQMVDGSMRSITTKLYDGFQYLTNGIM
Insulin-like growth factor 1 receptor, sequence (P08069 31-736 limits assumed): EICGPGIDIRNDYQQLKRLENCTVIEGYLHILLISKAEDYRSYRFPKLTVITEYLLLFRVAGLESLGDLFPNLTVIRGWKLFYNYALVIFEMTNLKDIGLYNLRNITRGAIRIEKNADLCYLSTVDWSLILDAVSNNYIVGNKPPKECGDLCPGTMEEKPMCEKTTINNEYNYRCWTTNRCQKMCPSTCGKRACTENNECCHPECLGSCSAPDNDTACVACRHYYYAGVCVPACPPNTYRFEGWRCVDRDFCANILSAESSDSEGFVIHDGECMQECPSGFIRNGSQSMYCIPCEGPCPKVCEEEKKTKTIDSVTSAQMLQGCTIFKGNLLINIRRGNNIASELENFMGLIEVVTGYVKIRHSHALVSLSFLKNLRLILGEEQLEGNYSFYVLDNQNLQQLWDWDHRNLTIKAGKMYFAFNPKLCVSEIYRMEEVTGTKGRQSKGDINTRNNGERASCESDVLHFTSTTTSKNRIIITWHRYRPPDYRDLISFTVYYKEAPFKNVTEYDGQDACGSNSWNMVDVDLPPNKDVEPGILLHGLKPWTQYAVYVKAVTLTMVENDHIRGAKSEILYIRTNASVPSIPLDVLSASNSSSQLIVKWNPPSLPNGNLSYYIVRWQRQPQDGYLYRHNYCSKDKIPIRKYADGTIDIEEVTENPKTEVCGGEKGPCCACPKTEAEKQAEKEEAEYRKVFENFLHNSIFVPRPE
Insulin-like growth factor 1 receptor, sequence (P08069 741-1367 limits assumed): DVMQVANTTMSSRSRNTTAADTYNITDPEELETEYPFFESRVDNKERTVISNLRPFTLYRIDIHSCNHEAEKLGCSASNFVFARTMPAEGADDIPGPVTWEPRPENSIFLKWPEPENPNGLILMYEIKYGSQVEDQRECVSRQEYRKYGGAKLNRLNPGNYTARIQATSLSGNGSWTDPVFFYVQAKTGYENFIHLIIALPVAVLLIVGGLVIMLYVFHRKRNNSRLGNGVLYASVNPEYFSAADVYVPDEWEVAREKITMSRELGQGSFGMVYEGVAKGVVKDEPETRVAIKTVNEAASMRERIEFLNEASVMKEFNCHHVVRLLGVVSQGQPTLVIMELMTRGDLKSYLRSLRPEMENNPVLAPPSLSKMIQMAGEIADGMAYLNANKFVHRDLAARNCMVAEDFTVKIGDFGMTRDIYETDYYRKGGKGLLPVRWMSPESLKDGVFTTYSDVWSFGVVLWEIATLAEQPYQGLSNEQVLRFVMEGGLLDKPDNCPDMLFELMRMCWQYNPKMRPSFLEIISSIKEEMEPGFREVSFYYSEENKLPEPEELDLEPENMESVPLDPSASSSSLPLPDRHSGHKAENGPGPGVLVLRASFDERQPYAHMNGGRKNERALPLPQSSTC
Aurora kinase B, sequence (Q96GD4 whole entry): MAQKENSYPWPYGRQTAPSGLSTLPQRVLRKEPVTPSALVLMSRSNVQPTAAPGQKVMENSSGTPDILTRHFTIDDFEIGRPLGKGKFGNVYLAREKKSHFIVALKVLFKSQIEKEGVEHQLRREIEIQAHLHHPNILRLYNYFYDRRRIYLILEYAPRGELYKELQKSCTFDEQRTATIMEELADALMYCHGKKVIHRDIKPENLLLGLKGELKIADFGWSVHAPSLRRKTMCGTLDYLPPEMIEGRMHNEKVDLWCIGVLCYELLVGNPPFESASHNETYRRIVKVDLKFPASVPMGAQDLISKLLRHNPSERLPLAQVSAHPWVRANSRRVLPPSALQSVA

With `C=CC(=O)Nc1cc(-n2c(=O)ccc3cnc4ccc(-c5ccc(NS(C)(=O)=O)cc5)cc4c32)ccc1C` the % of control ([1]; at 1 µM) was 79%, the % of control ([1]; at 10 µM) was 20% and the % of control ([2]; at 1 µM) was 72%. It also gave a % of control ([2]; at 10 µM) of 86% and a % of control [3] of 100%.
In the case of `CN(C)CC#Cc1ccc2[nH]c3c(c2c1)-c1nc(N)ncc1CCC3`, the % of control (Aurora kinase B) is reported as 23%.
With `Cc1ccc(-c2ccc3c(ccc4sc5c(c43)NC[C@@H](C)NC5=O)n2)cn1` the % of inhibition [4] was 4%.
For `C=CC(=O)Nc1cccc(C(=O)Nc2ccc(Nc3cc(-c4[nH]c(SC)nc4C)ccn3)cc2)c1`, the % of control ([5]; at 1 µM) was 91% and the % of control ([5]; at 5 µM) was 87%.
In the case of `CC[C@@H]1[C@H](F)C(=O)N[C@@H]1COc1nccc2cc(C(N)=O)c(OC)cc12` [ZIMLOVISERTIB], the % of inhibition [6] is reported as 7.2% and the % of inhibition [7] is reported as -11.5%.
With `CN(C)CCOc1ccc(-c2nc(-c3ccncc3)c(-c3ccc4c(c3)CC/C4=N\O)[nH]2)cc1` the % of control [8] was 100% and the % of control [9] was 67%.
